From PubChem BioAssay AID248 (DTP/NCI, 2004) come the findings set out here.

Several values for one entry are separate records, joined by “and”; a condition that tells them apart may be missing. Equal entries are not always repeated. Toxic doses and inconclusive results are not listed.

This assay relates to L1210 leukemia ip in BDF1 mice, survival T/C. Briefly: NCI In Vivo Anticancer Drug Screen. Data for tumor model L1210 Leukemia (intraperitoneal) in B6D2F1 (BDF1) mice. The settings on record: higher = longer survival. An outline of the steps:
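Antitumor effect is assessed in tumor-bearing animals. Survival in the compound arm is compared with a vehicle-dosed control arm and expressed as their quotient.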

Where [1] appears, read: endpoint: mean survival time, dose: 100.0 mg/kg/injection, schedule: Q01DX009 (ip), vehicle: Klucel (hydroxypropylcellulose) (HPC).
Where [2] appears, read: endpoint: mean survival time, dose: 100.0 mg/kg/injection, schedule: Q04DX003 (ip), vehicle: Klucel (hydroxypropylcellulose) (HPC).
The mark [3] stands for this setting: endpoint: mean survival time, dose: 200.0 mg/kg/injection, schedule: Q01DX009 (ip), vehicle: Klucel (hydroxypropylcellulose) (HPC).
Setting [4] is: endpoint: mean survival time, dose: 200.0 mg/kg/injection, schedule: Q04DX003 (ip), vehicle: Klucel (hydroxypropylcellulose) (HPC).
[5] abbreviates: endpoint: mean survival time, dose: 400.0 mg/kg/injection, schedule: Q01DX009 (ip), vehicle: Klucel (hydroxypropylcellulose) (HPC).
The mark [6] stands for this setting: endpoint: mean survival time, dose: 400.0 mg/kg/injection, schedule: Q04DX003 (ip), vehicle: Klucel (hydroxypropylcellulose) (HPC).
Where [7] appears, read: endpoint: mean survival time, dose: 100.0 mg/kg/injection, schedule: Q04DX003 (ip), vehicle: saline.
The mark [8] stands for this setting: endpoint: mean survival time, dose: 200.0 mg/kg/injection, schedule: Q04DX003 (ip), vehicle: water.
Setting [9] is: endpoint: mean survival time, dose: 400.0 mg/kg/injection, schedule: Q04DX003 (ip), vehicle: water.

For the compound `COc1cc2ccc(CC(=O)NCCc3ccc4c(c3)OCO4)cc2cc1OC`, the T/C is, setting by setting: under setting [1], 97 % of control; under setting [2], 97 % of control; under setting [3], 90 % of control; under setting [4], 102 % of control; under setting [5], 93 % of control; under setting [6], 91 % of control.
Consider `COc1ccc(-c2cc(C(=O)O)c3cccc(C(F)(F)F)c3n2)cc1`, for which the T/C under setting [7] was 90 % of control.
Turning to `NC(=O)c1ccc(C(F)(F)F)cc1O`, the T/C is 95 % of control under setting [1]; 100 % of control under setting [2]; 95 % of control under setting [3]; 97 % of control under setting [4]; 95 % of control under setting [5]; 95 % of control under setting [6].
Turning to `C[C@H](CN1CC(=O)NC(=O)C1)N1CC(=O)NC(=O)C1`, the T/C was 124 % of control (endpoint: mean survival time, dose: 25.0 mg/kg/injection, schedule: Q04DX003 (ip), vehicle: saline); 104 % of control (endpoint: mean survival time, dose: 25.0 mg/kg/injection, schedule: Q04DX003 (ip), vehicle: water); 117 % of control (endpoint: mean survival time, dose: 50.0 mg/kg/injection, schedule: Q04DX003 (ip), vehicle: saline); 110 % of control (endpoint: mean survival time, dose: 50.0 mg/kg/injection, schedule: Q04DX003 (ip), vehicle: water); 117 % of control under setting [7]; 158 % of control (endpoint: mean survival time, dose: 200.0 mg/kg/injection, schedule: Q04DX003 (ip), vehicle: saline). The T/C was 152 % of control under setting [8]; 182 % of control (endpoint: mean survival time, dose: 400.0 mg/kg/injection, schedule: Q04DX003 (ip), vehicle: saline); 184 % of control under setting [9]; 187 % of control (endpoint: mean survival time, dose: 800.0 mg/kg/injection, schedule: Q04DX003 (ip), vehicle: saline); 107 % of control (endpoint: mean survival time, dose: 800.0 mg/kg/injection, schedule: Q04DX003 (ip), vehicle: water); 153 % of control (endpoint: median survival time, dose: 8.0 mg/kg/injection, schedule: Q03HX008 (ip), vehicle: saline). Also, the T/C is, setting by setting: (endpoint: median survival time, dose: 8.0 mg/kg/injection, schedule: Q03HX016 (ip), vehicle: saline) 204 % of control; (endpoint: median survival time, dose: 16.0 mg/kg/injection, schedule: Q01DX009 (sc), vehicle: saline) 152 % of control; (endpoint: median survival time, dose: 16.0 mg/kg/injection, schedule: Q03HX008 (ip), vehicle: saline) 163 % of control; (endpoint: median survival time, dose: 16.0 mg/kg/injection, schedule: Q03HX016 (ip), vehicle: saline) 203 % of control; (endpoint: median survival time, dose: 16.0 mg/kg/injection, schedule: Q03HX024 (ip), vehicle: saline) 98 % of control; (endpoint: median survival time, dose: 32.0 mg/kg/injection, schedule: Q01DX009 (sc), vehicle: saline) 156 % of control. Further, the T/C is, setting by setting: (endpoint: median survival time, dose: 32.0 mg/kg/injection, schedule: Q03HX008 (ip), vehicle: saline) 160 % of control; (endpoint: median survival time, dose: 32.0 mg/kg/injection, schedule: Q03HX024 (ip), vehicle: saline) 94 % of control; (endpoint: median survival time, dose: 64.0 mg/kg/injection, schedule: Q01DX001 (ip), vehicle: saline) 102 % of control; (endpoint: median survival time, dose: 64.0 mg/kg/injection, schedule: Q01DX009 (sc), vehicle: saline) 110 % of control; (endpoint: median survival time, dose: 64.0 mg/kg/injection, schedule: Q04DX003 (ip), vehicle: saline) 108 % of control; (endpoint: median survival time, dose: 64.0 mg/kg/injection, schedule: Q04DX003 (sc), vehicle: saline) 121 % of control. Moreover, the T/C by setting is: (endpoint: median survival time, dose: 64.0 mg/kg/injection, schedule: Q08DX002 (ip), vehicle: saline) 109 % of control; (endpoint: median survival time, dose: 128.0 mg/kg/injection, schedule: Q01DX001 (ip), vehicle: saline) 107 % of control; (endpoint: median survival time, dose: 128.0 mg/kg/injection, schedule: Q01DX009 (sc), vehicle: saline) 93 % of control; (endpoint: median survival time, dose: 128.0 mg/kg/injection, schedule: Q03HX008 (ip), vehicle: saline) 152 % of control; (endpoint: median survival time, dose: 128.0 mg/kg/injection, schedule: Q04DX003 (ip), vehicle: saline) 124 % of control; (endpoint: median survival time, dose: 128.0 mg/kg/injection, schedule: Q08DX002 (ip), vehicle: saline) 107 % of control. In addition, the T/C was 109 % of control (endpoint: median survival time, dose: 256.0 mg/kg/injection, schedule: Q01DX001 (ip), vehicle: saline); 172 % of control (endpoint: median survival time, dose: 256.0 mg/kg/injection, schedule: Q04DX003 (sc), vehicle: saline); 120 % of control (endpoint: median survival time, dose: 512.0 mg/kg/injection, schedule: Q01DX001 (ip), vehicle: saline); 157 % of control (endpoint: median survival time, dose: 512.0 mg/kg/injection, schedule: Q04DX003 (ip), vehicle: saline); 202 % of control (endpoint: median survival time, dose: 512.0 mg/kg/injection, schedule: Q04DX003 (sc), vehicle: saline); 121 % of control (endpoint: median survival time, dose: 512.0 mg/kg/injection, schedule: Q08DX002 (ip), vehicle: saline). The T/C (endpoint: median survival time, dose: 1024.0 mg/kg/injection, schedule: Q04DX003 (ip), vehicle: saline) is 193 % of control; the T/C (endpoint: median survival time, dose: 1024.0 mg/kg/injection, schedule: Q04DX003 (sc), vehicle: saline) is 180 % of control; the T/C (endpoint: median survival time, dose: 1024.0 mg/kg/injection, schedule: Q08DX002 (ip), vehicle: saline) was 179 % of control.
Regarding `Cn1cc(Br)c2ccccc2c1=O`, the T/C was 87 % of control (endpoint: mean survival time, dose: 25.0 mg/kg/injection, schedule: Q04DX003 (ip), vehicle: Klucel (hydroxypropylcellulose) (HPC)); 101 % of control (endpoint: mean survival time, dose: 50.0 mg/kg/injection, schedule: Q04DX003 (ip), vehicle: Klucel (hydroxypropylcellulose) (HPC)); 94 % of control and 124 % of control under setting [2].
With `NC(=O)N/N=C/c1ccccc1`, the T/C under setting [1] is 96 % of control; the T/C (endpoint: mean survival time, dose: 100.0 mg/kg/injection, schedule: Q04DX002 (ip), vehicle: Klucel (hydroxypropylcellulose) (HPC)) is 89 % of control; the T/C under setting [3] is 96 % of control; the T/C (endpoint: mean survival time, dose: 200.0 mg/kg/injection, schedule: Q04DX002 (ip), vehicle: Klucel (hydroxypropylcellulose) (HPC)) is 100 % of control; the T/C under setting [5] is 111 % of control; the T/C (endpoint: mean survival time, dose: 400.0 mg/kg/injection, schedule: Q04DX002 (ip), vehicle: Klucel (hydroxypropylcellulose) (HPC)) was 104 % of control.
Turning to `Nc1ccc(Nc2nc3ccccc3s2)c(O)c1`, the T/C was 104 % of control (endpoint: mean survival time, dose: 75.0 mg/kg/injection, schedule: Q01DX001 (ip), vehicle: saline); 101 % of control (endpoint: mean survival time, dose: 150.0 mg/kg/injection, schedule: Q01DX001 (ip), vehicle: saline); 104 % of control (endpoint: mean survival time, dose: 300.0 mg/kg/injection, schedule: Q01DX001 (ip), vehicle: saline).
Take `COC(CSc1ncc2cnccn12)OC`: the T/C (endpoint: mean survival time, dose: 100.0 mg/kg/injection, schedule: Q01DX009 (ip), vehicle: water) is 102 % of control; the T/C (endpoint: mean survival time, dose: 100.0 mg/kg/injection, schedule: Q04DX003 (ip), vehicle: water) is 103 % of control; the T/C (endpoint: mean survival time, dose: 200.0 mg/kg/injection, schedule: Q01DX009 (ip), vehicle: water) was 100 % of control; the T/C under setting [8] is 106 % of control; the T/C (endpoint: mean survival time, dose: 400.0 mg/kg/injection, schedule: Q01DX009 (ip), vehicle: water) is 100 % of control; the T/C under setting [9] is 108 % of control.
For `Cc1cccc(Cl)c1NC(=O)c1cc([N+](=O)[O-])cc([N+](=O)[O-])c1`, the T/C runs as follows: under setting [1], 100 % of control; under setting [3], 96 % of control.
Take `CCCCCCCCCCCCCCCCCC[N+](C)(C)Cc1cc(=O)c(O)co1`: the T/C was 89 % of control (endpoint: mean survival time, dose: 6.25 mg/kg/injection, schedule: Q01DX009 (ip), vehicle: saline); 106 % of control (endpoint: mean survival time, dose: 12.5 mg/kg/injection, schedule: Q01DX009 (ip), vehicle: saline); 99 % of control (endpoint: mean survival time, dose: 25.0 mg/kg/injection, schedule: Q01DX009 (ip), vehicle: saline).
